Source: patent publication US7214672B2, “Preventives/remedies for inflammatory airway diseases” (Nippon Shinyaku Co., Ltd., priority 2000, dated 2007)

System: Rat (male, female)
Test: Single dose toxicity study
Type: in vivo
Conditions: rats, administered only once
Procedure: Compound 1 or 2 of the present invention was administered to rats only once, and the lethal dose thereof was determined.

| SMILES | toxicity (single dose) |
| --- | --- |
| C[C@@H]1C[C@H]2[C@@H]3CCC4=CC(=O)C=C[C@]4(C)[C@@]3(F)[C@@H](O)C[C@]2(C)[C@@]1(OC(=O)C1CC1)C(=O)CO [Compound 1, 9-fluoro-11β,17,21-trihydroxy-16α-methyl-1,4-pregnadiene-3,20-dione 17-cyclopropanecarboxylate] | low toxicity |
| C[C@@H]1C[C@H]2[C@@H]3CCC4=CC(=O)C=C[C@]4(C)[C@@]3(F)[C@@H](O)C[C@]2(C)[C@@]1(OC(=O)C1CC1)C(=O)COC(=O)C1CCCCC1 [Compound 2, 9-fluoro-11β,17,21-trihydroxy-16α-methyl-1,4-pregnadiene-3,20-dione 21-cyclohexanecarboxylate 17-cyclopropanecarboxylate] | low toxicity |
